The text below walks through data of patent US20240000769A1, “AMORPHOUS SOLID DISPERSIONS” (UCB Biopharma SRL, priority 2020, published 2024).

In brackets after ≈: the same amount, converted by molar mass. Like-named read-outs stand apart in the source and are kept apart here.

Data set [1] in a line: Shake flask solubility (24 h) in buffer/biorelevant media. It counts as physicochemical. The conditions noted are these: thermodynamic from solid, n=3, read-out: Solubility Measurements (24 h). The protocol: The respective solubility of compounds of formula (Ia) and ASD1 was determined in different media while using the shake flask method. An excess of solid (equivalent to a concentration of compound of formula (I) of 5 mg/mL) was suspended in 5 mL of buffer/biorelevant media as specifically described in Table 4 and incubated in a sealed glass vial (10 mL) for 24 h at both RT and 37° C. in a climatic chamber equipped with a rotary mixer. The 24h time point was assumed to have reached solubility, at which time the suspension was filtered through a 0.45-μm ultra free filter (Merck Millipore) and the drug content was determined by HPLC. The solubility of compound (Ia) and ASD1 was determined in triplicate (n=3). Where required to prevent drug precipitation, the filtrate was diluted with a suitable organic solvent. […] These media are respectively a phosphate buffer, FasSGF, FASSIF-V2 and FeSSIF-V2. FasSG is fasted condition gastric fluid. FasSGF is prepared at pH 1.6 and contains 0.08 mM Taurocholate, 0.02 mM phospholipids, 34 mM sodium and 59 mM chloride. FaSSIF-V2 and FeSSIF-V2 are Fasted and Fed State Biorelevant Media, respectively. FaSSIF-V2 is prepared at pH 6.5 and contains 3 mM Taurocholate, 0.2 mM Phospholipids, 106 mM Sodium, 69 mM Chloride and 19 mM Maleic acid. FeSSIF-V2 is prepared at pH 5.8 and contains 10 mM Taurocholate, 2 mM Phospholipids, 0.8 mM Oleate, 5 mM Glycerol monoleate, 218 mM Sodium, 125 mM Chloride and 55 mM Maleic acid.

A short description of data set [2]: Dynamic dissolution profile, USP Apparatus 2, simulated gastric media then FaSSIF-V2. It is filed as physicochemical. Particulars: 37° C., 30 min 0.1N HCl (1 mg/mL) then 180 min FaSSIF-V2 (0.5 mg/mL).
Protocol: The dissolution profile was determined in a USP Apparatus 2 type (Distek 2100 C Dissolution Apparatus) at 37° C. The dynamic dissolution test includes first a 30 minutes dissolution in simulated gastric media (0.1N HCl) to achieve a concentration equivalent to a concentration of compound of formula (I) of 1 mg/mL, followed by a 180 minutes dissolution in FaSSIF-V2 to achieve a concentration equivalent to a concentration of compound of formula (I) of 0.5 mg/mL.
Then, 50 mL of simulated gastric media (0.1N HCl) was added to the vessel and the paddle speed was fixed at 100 rpm. After 30 minutes, an equivalent volume (50 mL) of fasted state biorelevant media was added to the vessel to obtain the composition of FaSSIF-V2. Dissolution was carried out in triplicate (n=3). At each timepoint, the suspension was filtered through a 0.45-μm ultra free filter (Merck Millipore) and the content of compound of formula (I) was determined by HPLC. The filtrate was then diluted with a suitable organic solvent.

The solubility is the dissolved amount per volume that the medium holds. Turning to `C[C@H]1c2cccc(C(C)(C)O)c2C[C@H](CO)N1C(=O)Cc1c(Cl)ccc2c1c(Cl)nn2C` [Compound (Ia), 2-(3,5-dichloro-1-methyl-indazol-4-yl)-1-[(1S,3R)-3-(hydroxymethyl)-5-(1-hydroxy-1-methyl-ethyl)-1-methyl-3,4-dihydro-1H-isoquinolin-2-yl]ethanone], the solubility at 24 h is below 1 µg/mL in data set [1] (aqueous buffer, Phosphate buffer (50 mM), pH 5.8, RT); below 1 µg/mL in data set [1] (aqueous buffer, Phosphate buffer (50 mM), pH 6.5, RT); below 1 µg/mL in data set [1] (fassgf or other biorelevant, FasSGF, pH 1.6, 37° C.); around 1.5 µg/mL (≈ 3.15 µM) in data set [1] (FaSSIF-V2, pH 6.5, 37° C.); around 4 µg/mL (≈ 8.4 µM) in data set [1] (FeSSIF-V2, pH 5.8, 37° C.). In addition, in data set [2], the “dissolution profile over time” value is on record as “drops in gastric media to very low levels”.
